{"source": "patent US20230145822A1", "about": "(priority 2020, published 2023)", "key": {"human PrP^C": {"target": "human PrP^C (Homo sapiens, UniProt P04156)", "assay_type": "cell-based"}, "LC3II": {"system": "LC3II", "assay_type": "cell-based"}, "ZR-75 cells": {"system": "ZR-75 cells", "conditions": "human"}, "RML prion strain": {"system": "RML prion strain", "assay_type": "cell-based, mouse"}, "PrP^C": {"target": "PrP^C (Mus musculus, UniProt P04925)", "sequence (P04925 23-254 limits assumed)": "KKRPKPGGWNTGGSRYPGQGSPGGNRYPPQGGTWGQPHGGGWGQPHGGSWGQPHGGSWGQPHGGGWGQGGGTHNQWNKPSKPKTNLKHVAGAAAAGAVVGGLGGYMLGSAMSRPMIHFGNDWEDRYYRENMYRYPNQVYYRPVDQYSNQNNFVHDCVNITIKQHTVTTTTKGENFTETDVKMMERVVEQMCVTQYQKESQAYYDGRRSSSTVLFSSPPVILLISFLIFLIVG", "assay_type": "cell-based", "conditions": "1-10 μM, 24 h, PNGase-F"}, "PrP^C mRNA [1]": {"system": "PrP^C mRNA", "assay_type": "cell-based, human"}, "EGFP-PrP^C": {"system": "EGFP-PrP^C", "assay_type": "cell-based, mouse", "conditions": "24 h, 3-10 μM"}, "mouse PrP^C mRNA": {"system": "mouse PrP^C mRNA", "assay_type": "cell-based"}, "NEGR-1": {"system": "NEGR-1", "assay_type": "cell-based"}, "PrP^C mRNA [2]": {"system": "PrP^C mRNA", "assay_type": "cell-based, mouse"}}, "note": "“Also recorded” adds a separate entry of the source. Like-named read-outs stand apart in the source and are kept apart here.", "data": [{"molecule": "COc1cc(C2CC(=O)Nc3c2cnn3-c2ccc(I)cc2)ccc1O", "note": "(stereo not shown) [GC6]", "values": [{"measurement": "IC25", "setting": "human PrP^C", "value": "sub-micromolar"}, {"measurement": "IC50", "setting": "human PrP^C", "value": "sub-micromolar"}, {"measurement": "effect on PrP^C expression", "setting": "human PrP^C", "value": "even more prominent activity in ZR-75 cells than in HEK293 cells"}]}, {"molecule": "COc1cc(C2CC(=O)Nc3c2cnn3-c2cccc(F)c2)ccc1O", "note": "(stereo not shown) [SM898]", "values": [{"measurement": "estimated median lethal dose, LD50", "setting": "HEK293 cells; human", "value": 37.9, "unit": "µM"}, {"measurement": "reduction of cytotoxicity versus SM875", "setting": "HEK293 cells; human", "value": "~3", "unit": "times"}]}, {"molecule": "CO/C1=C\\C(C)=C\\[C@@H](C)[C@@H](O)[C@@H](C)C/C(C)=C/C=C/[C@H](OC)[C@@H]([C@@H](C)[C@@H](O)[C@H](C)[C@@]2(O)C[C@@H](O)[C@H](C)[C@@H](C(C)C)O2)OC1=O", "note": "[BAF, Bafilomycin A1, reference compound]", "values": [{"measurement": "effect on SM875-induced decrease of PrP^C levels", "setting": "human PrP^C", "value": "almost completely prevents"}]}, {"molecule": "OC[C@H]1O[C@H](O[C@H]2O[C@H](CO)[C@@H](O)[C@H](O)[C@H]2O)[C@H](O)[C@@H](O)[C@@H]1O", "note": "[trehalose, reference compound]", "values": [{"measurement": "LC3II levels", "setting": "LC3II", "value": "increased LC3-II levels"}]}, {"molecule": "OCC(O)Cn1c2ccc(Br)cc2c2cc(Br)ccc21", "note": "(stereo not shown) [SM930]", "values": [{"measurement": "concentration inducing cell death", "setting": "ZR-75 cells", "value": 30, "unit": "µM"}, {"measurement": "concentration inducing cell death", "setting": "HEK293 cells; human", "value": 30, "unit": "µM"}, {"measurement": "concentration from which human PrP^C expression is suppressed", "setting": "human PrP^C", "value": "≥ 3", "unit": "µM"}]}, {"molecule": "Fe(III)-TMPyP", "values": [{"measurement": "prion levels (PK-resistant PrP)", "setting": "RML prion strain", "value": "inhibits prion levels"}]}, {"molecule": "COc1cc(C2CC(=O)Nc3c2cnn3-c2ccc(Br)cc2)ccc1O", "note": "(stereo not shown) [SM875]", "values": [{"measurement": "alpha-cleavage (C1 PrP)", "setting": "PrP^C", "value": "dose-dependent increase of Cl PrP"}, {"measurement": "PrP^C mRNA levels", "setting": "PrP^C mRNA [1]", "value": "does not decrease PrP^C mRNA levels"}, {"measurement": "LC3II levels", "setting": "LC3II", "value": "large increase; also recorded: much smaller increase"}, {"measurement": "cytotoxicity", "setting": "HEK293 cells", "value": "evident cytotoxicity"}, {"measurement": "estimated median lethal dose, LD50", "setting": "HEK293 cells; human", "value": 4.6, "unit": "µM"}, {"measurement": "cell surface EGFP-PrP^C", "setting": "EGFP-PrP^C", "value": "drastic reduction"}, {"measurement": "PrP^C mRNA levels", "setting": "mouse PrP^C mRNA", "value": "does not decrease PrP^C mRNA levels"}, {"measurement": "effect on control protein NEGR-1", "setting": "NEGR-1", "value": "did not produce any effect"}, {"measurement": "PrP^C mRNA levels", "setting": "PrP^C mRNA [2]", "value": "does not decrease PrP^C mRNA levels"}]}, {"molecule": "Cc1ccccc1Cn1c(=O)c2c(nc3n(-c4ccccc4O)c(C)c(C)n23)n(C)c1=O", "note": "[SM940]", "values": [{"measurement": "concentration inducing cell death", "setting": "ZR-75 cells", "value": "> 30", "unit": "µM"}, {"measurement": "concentration inducing cell death", "setting": "HEK293 cells; human", "value": "> 30", "unit": "µM"}, {"measurement": "concentration from which human PrP^C expression is suppressed", "setting": "human PrP^C", "value": "≥ 3", "unit": "µM"}, {"measurement": "PrP^C mRNA levels", "setting": "mouse PrP^C mRNA", "value": "do not suppress mouse PrP^C mRNA levels"}]}, {"molecule": "COc1cc2c(cc1OC)CN(C(=O)c1cccc(Cl)c1)CC2", "note": "[SM950]", "values": [{"measurement": "concentration inducing cell death", "setting": "ZR-75 cells", "value": 30, "unit": "µM"}, {"measurement": "concentration inducing cell death", "setting": "HEK293 cells; human", "value": "≥ 3", "unit": "µM"}, {"measurement": "concentration from which human PrP^C expression is suppressed", "setting": "human PrP^C", "value": "≥ 1", "unit": "µM"}, {"measurement": "PrP^C mRNA levels", "setting": "mouse PrP^C mRNA", "value": "do not suppress mouse PrP^C mRNA levels"}]}]}
